From the NIST ThermoML archive (doi:10.1016/j.jct.2013.02.006)
± gives the expanded uncertainty stated by the source.

Assay: activity coefficient (dimensionless); of the first substance listed, at infinite dilution; xn = mol fraction of the nth substance listed
Details: 101 kPa, Liquid, Chromatography, x1 = 0

SMILES | activity coefficient (333.2 K) | activity coefficient (348.2 K) | activity coefficient (363.2 K)
C=CCCCCC [1-heptene] + CN1CCCC1=O | 6.37 ± 0.43 | 6.24 ± 0.43 | 6.28 ± 0.43
C=CCCCCC [1-heptene] + O=CN1CCOCC1 | 16 ± 1.1 | 14.6 ± 1 | 13.3 ± 0.91
C#CCCCCC [1-heptyne] + CN1CCCC1=O | 1.72 ± 0.12 | 1.79 ± 0.12 | 1.92 ± 0.13
C#CCCCCC [1-heptyne] + O=CN1CCOCC1 | 3.85 ± 0.26 | 3.83 ± 0.26 | 3.68 ± 0.25
C#CCCCC [1-hexyne] + CN1CCCC1=O | 1.47 ± 0.1 | 1.57 ± 0.1 | 1.77 ± 0.12
C#CCCCC [1-hexyne] + O=CN1CCOCC1 | 3.25 ± 0.22 | 3.19 ± 0.22 | 2.78 ± 0.19
C#CCCCCCC [1-octyne] + CN1CCCC1=O | 2.07 ± 0.14 | 2.15 ± 0.15 | 2.16 ± 0.15
C#CCCCCCC [1-octyne] + O=CN1CCOCC1 | 5.15 ± 0.35 | 4.9 ± 0.3 | 4.65 ± 0.32
C=CCCC [1-pentene] + CN1CCCC1=O | 4.75 ± 0.32 | 4.84 ± 0.33 | 4.99 ± 0.34
C=CCCC [1-pentene] + O=CN1CCOCC1 | 9.97 ± 0.68 | 9.43 ± 0.64 | 8.61 ± 0.59
C#CCCC [1-pentyne] + CN1CCCC1=O | 1.27 ± 0.08 | 1.41 ± 0.09 | 1.63 ± 0.11
C#CCCC [1-pentyne] + O=CN1CCOCC1 | 2.56 ± 0.17 | 2.58 ± 0.18 | 2.38 ± 0.16
c1ccccc1 [benzene] + CN1CCCC1=O | 1.1 ± 0.07 | 1.14 ± 0.07 | 1.1 ± 0.07
c1ccccc1 [benzene] + O=CN1CCOCC1 | 1.91 ± 0.13 | 1.82 ± 0.12 | 1.81 ± 0.12
C1CCCCCC1 [cycloheptane] + CN1CCCC1=O | 7.51 ± 0.51 | 6.71 ± 0.46 | 6.8 ± 0.46
C1CCCCCC1 [cycloheptane] + O=CN1CCOCC1 | 15.4 ± 1.1 | 12.7 ± 0.87 | 10.5 ± 0.71
C1CCCCC1 [cyclohexane] + CN1CCCC1=O | 6.32 ± 0.43 | 5.83 ± 0.4 | 5.41 ± 0.37
C1CCCCC1 [cyclohexane] + O=CN1CCOCC1 | 13.8 ± 0.94 | 12.3 ± 0.84 | 11 ± 1
C1CCCCCCC1 [cyclooctane] + CN1CCCC1=O | 8.23 ± 0.56 | 7.62 ± 0.52 | 6.06 ± 0.41
C1CCCCCCC1 [cyclooctane] + O=CN1CCOCC1 | 17.7 ± 1.2 | 14.5 ± 0.99 | 11.9 ± 0.81
C1CCCC1 [cyclopentane] + CN1CCCC1=O | 5.16 ± 0.35 | 4.68 ± 0.32 | 4.55 ± 0.31
C1CCCC1 [cyclopentane] + O=CN1CCOCC1 | 10.2 ± 0.7 | 8.75 ± 0.6 | 7.59 ± 0.52
CCO [ethanol] + CN1CCCC1=O | 0.606 ± 0.042 | 0.605 ± 0.042 | 0.618 ± 0.043
CCO [ethanol] + O=CN1CCOCC1 | 1.2 ± 0.077 | 1.14 ± 0.073 | 0.914 ± 0.058

SMILES | activity coefficient (333.2 K) | activity coefficient (348.2 K) | activity coefficient (363.2 K)
CCc1ccccc1 [ethylbenzene] + CN1CCCC1=O | 1.73 ± 0.12 | 1.83 ± 0.12 | 1.61 ± 0.11
CCc1ccccc1 [ethylbenzene] + O=CN1CCOCC1 | 3.46 ± 0.24 | 3.41 ± 0.23 | 3.21 ± 0.22
CCCCCCC [heptane] + CN1CCCC1=O | 11.4 ± 0.78 | 10.7 ± 0.73 | 10 ± 0.68
CCCCCCC [heptane] + O=CN1CCOCC1 | 31.3 ± 2.1 | 27.5 ± 1.9 | 25.9 ± 1.8
C=CCCCC [hex-1-ene] + CN1CCCC1=O | 5.51 ± 0.38 | 5.44 ± 0.37 | 5.57 ± 0.38
C=CCCCC [hex-1-ene] + O=CN1CCOCC1 | 13.5 ± 0.92 | 11.6 ± 0.79 | 10.5 ± 0.72
CCCCCC [hexane] + CN1CCCC1=O | 9.51 ± 0.65 | 9.19 ± 0.63 | 8.51 ± 0.58
CCCCCC [hexane] + O=CN1CCOCC1 | 24.6 ± 1.7 | 21.5 ± 1.5 | 19.6 ± 1.3
CO [methanol] + CN1CCCC1=O | 0.482 ± 0.037 | 0.556 ± 0.04 | 0.511 ± 0.038
CO [methanol] + O=CN1CCOCC1 | 0.852 ± 0.055 | 0.847 ± 0.054 | 0.706 ± 0.047
CCCCCCCCC [nonane] + CN1CCCC1=O | 16.7 ± 1.1 | 14.9 ± 1 | 12 ± 0.82
CCCCCCCCC [nonane] + O=CN1CCOCC1 | 50.2 ± 3.4 | 43.5 ± 3 | 38.2 ± 2.6
C=CCCCCCC [oct-1-ene] + CN1CCCC1=O | 8.39 ± 0.57 | 7.6 ± 0.52 | 6.7 ± 0.46
C=CCCCCCC [oct-1-ene] + O=CN1CCOCC1 | 20.5 ± 1.4 | 18.4 ± 1.3 | 16.7 ± 1.1
CCCCCCCC [octane] + CN1CCCC1=O | 13.8 ± 0.94 | 13.2 ± 0.9 | 10.6 ± 0.72
CCCCCCCC [octane] + O=CN1CCOCC1 | 39.5 ± 2.7 | 34.3 ± 2.4 | 30.6 ± 2.1
CCCCC [pentane] + CN1CCCC1=O | 8.32 ± 0.57 | 8.11 ± 0.55 | 7.54 ± 0.51
CCCCC [pentane] + O=CN1CCOCC1 | 19.2 ± 1.3 | 17.3 ± 1.2 | 15.3 ± 1
CCCO [propan-1-ol] + CN1CCCC1=O | 0.537 ± 0.039 | 0.552 ± 0.04 | 0.548 ± 0.04
CCCO [propan-1-ol] + O=CN1CCOCC1 | 1.25 ± 0.08 | 1.15 ± 0.073 | 0.913 ± 0.058
CC(C)O [propan-2-ol] + CN1CCCC1=O | 0.627 ± 0.043 | 0.639 ± 0.044 | 0.632 ± 0.044
CC(C)O [propan-2-ol] + O=CN1CCOCC1 | 1.46 ± 0.1 | 1.29 ± 0.083 | 0.933 ± 0.059
Cc1ccccc1 [toluene] + CN1CCCC1=O | 1.39 ± 0.09 | 1.35 ± 0.09 | 1.42 ± 0.09
Cc1ccccc1 [toluene] + O=CN1CCOCC1 | 2.71 ± 0.18 | 4.04 ± 1.5 | 2.55 ± 0.17
